Experimental data taken from patent publication US9492466B2, “Beta-hydroxy-gamma-aminophosphonates for treating immune disorders” (Nucitec S.A. de C.V., priority 2012, dated 2016).

Assays:
CD4+ counts = settings: HIV-infected patients, in combination with standard antiretroviral treatment, vs antiretroviral agents with no supplementation; cited from earlier work
blood lymphocytes = experiment: T cell levels in normal rats (flow cytometry of circulating lymphocytes); assay type: in vivo; settings: Wistar rats, 22.4 mg/kg
Protocol: The ability of (2R,3S)-(2-hydroxy-5-methyl-3-trimethylammonium-hexyl)-phosphonic acid; iodide (referred to herein as “Compound 1”) to modify the level of blood lymphocytes in rats was investigated. (2R,3S)-(2-hydroxy-5-methyl-3-trimethylammonium-hexyl)-phosphonic acid; iodide (22.4 mg/kg) was administered to Wistar rats 5 days a week for two weeks. The circulating lymphocyte populations were identified and quantified by flow cytometry mice monoclonal antibodies against rat CD3+ conjugated with different fluorochromes and analyzed on a FACS Calibur flow cytometer BD using the Cell Quest software. […] It is noted that administration of Compound 1 increases the levels of T helper (CD4+) and cytotoxic (CD8+) lymphocytes. In addition, an increase in regulatory T cells (CD4+CD25+) (p<0.01) was observed.

blood T-lymphocytes = experiment: T cell levels in blood of obese rats, 5 weeks of treatment; assay type: in vivo, obese (fa/fa) Zucker rats; settings: obese Zucker rats, 100 mg/kg
Protocol: Compound 2 (100 mg/kg) was administered to obese (fa/fa) Zucker rats five days a week for 5 weeks. […] The level of T helper (CD4+) increased; cytotoxic T-lymphocyte(CD8+) levels remained unchanged.
The effect of Compound 2 on T lymphocyte populations in normal and unhealthy rats was investigated. Obese (fa/fa) Zucker rats (ZDF) and lean Wistar rats, as control, were used. Zucker rats present a mutation in the leptin receptor, which is the molecular basis of their characteristic phenotype (loss of satiety). Obese Zucker rats are considered representative of obesity-associated type diabetes in humans. They are hyperlipidaemic, grossly obese, hyperinsulinaemic, insulin resistant, and not prone to ketosis. Metabolic changes related to increased insulin resistance, including oxidative stress, have been implicated in obesity-related pathophysiology. However, most attention in recent years has been devoted to the concept that obesity elicits a chronic low-grade systemic inflammatory state.
In this study, animals were treated with 100 mg/kg of Compound 2 five days a week for 5 weeks. The circulating lymphocyte populations were identified and quantified by flow cytometry using mice monoclonal antibodies against rat CD3+ conjugated with different fluorochromes and analyzed on a FACS Calibur flow cytometer BD using the Cell Quest software.

THP-1 cells [1] = experiment: Phagocytic activity of THP-1 cells (yeast phagocytosis, flow cytometry); assay type: cell-based, human
Protocol: The ability of (2R,3S)-(2-hydroxy-5-methyl-3-trimethylammonium-hexyl)-phosphonic acid dimethyl ester; iodide to induce the phagocytic activity of monocytic cells (THP-1 cells) was investigated. For this, THP-1 cells were differentiated using phorbol myristate 13-acetate (PMA, 100 ng/mL) in order to induce the phagocytic activity of yeast. When the cells were treated with PMA (100 ng/mL) for 48 hours cell differentiation of monocytic cells to macrophages was observed (FIG. 14). Yeast were added to cultured media and the phagocytosis was measured by flow cytometry (FIG. 15). (2R,3S)-(2-hydroxy-5-methyl-3-trimethylammonium-hexyl)-phosphonic acid dimethyl ester; iodide induced the phagocytosis of yeast by macrophages in a similar way that those macrophages treated with PMA alone.

[2] = system: T lymphocyte subpopulations; experiment: T lymphocyte subpopulations in bloodstream, thymus and spleen, 8 weeks of treatment; assay type: in vivo, obese (fa/fa) Zucker rats (ZDF); settings: 100 mg/kg
Source text: To determine whether the increase in lymphocytes is due to an increased production of lymphocytes or their mobility, the levels of T lymphocyte subpopulations in bloodstream, thymus, and spleen from obese (fa/fa) Zucker rats (ZDF) and lean rats (control), after 8 weeks of treatment with Compound 2 was investigated.
Obese rats were used in this study. Lymphocyte populations from bloodstream, thymus, and spleen were identified and quantified by flow cytometry using mice monoclonal antibodies against rat CD3+ conjugated with different fluorochromes and analyzed on a FACS Calibur flow cytometer BD using the Cell Quest software.

thymus and spleen = experiment: Histological studies of thymus and spleen tissue; assay type: in vivo, obese (fa/fa) Zucker rats; settings: obese Zucker rats, hematoxylin and eosin
Protocol: Samples of tissue from thymus (FIG. 6) and spleen (FIG. 7) were taken and histological sections were made and stained with hematoxylin and eosin from obese (fa/fa) Zucker rats and lean rats. The histological sections from thymus show a decrease in thymic medulla in samples from obese animals. When animals were treated with Compound 2 for five weeks, a recovery of the cellularity of medulla in this lymphoid organ was observed.

[3] = system: liver injury present in obese (fa/fa) Zucker rats (ZDF); experiment: Histological studies of liver tissue; assay type: in vivo; settings: 100 mg/kg
Protocol: The ability of Compound 2 (100 mg/kg) to modify the liver injury present in obese (fa/fa) Zucker rats (ZDF) was investigated. Obese (fa/fa) Zucker rats (ZDF) and lean rats, as control, were used. Obese (fa/fa) Zucker rats (ZDF) were treated with a daily dose of 100 mg/kg of the Compound 2, 5 days a week during eight weeks.
Samples of tissue from liver were taken, and histological sections were made and stained with hematoxylin and eosin from obese (fa/fa) Zucker rats and lean rats.

ALT, AST and AP in serum = experiment: Level of liver enzymes (colorimetric); assay type: in vivo, obese (fa/fa) Zucker rats (ZDF); settings: obese Zucker rats, 100 mg/kg, p<0.01
Protocol: To determine whether the morphological changes in liver tissue (see EXAMPLE 6) were associated with an improvement in liver function, the levels of liver enzymes were investigated. Obese (fa/fa) Zucker rats (ZDF) and lean rats, as control, were used. Obese (fa/fa) Zucker rats (ZDF) were treated with a daily dose of Compound 2 (100 mg/kg) 5 days a week during eight weeks.
Plasma from blood samples was collected and liver enzymes were quantified by colorimetric methods. Liver enzymes, or liver (hepatic) function tests, are used to determine if the liver is functioning normally, or if it has an injury or disease. Alanine aminotransferase (ALT) is typically used to detect a liver injury or an active or chronic liver problem. Aspartate aminotransferase (AST) is used to detect liver injuries and long-term liver disease. Highly elevated levels of AST may indicate active hepatitis from any cause. Alkaline phosphatase (ALP) is an enzyme found in the bile ducts of the liver. Damage or obstruction of the bile ducts may result in elevated levels of ALP.

[4] = Level of glucose, triglycerides, cholesterol and liver glycogen; assay type: in vivo, obese (fa/fa) Zucker rats (ZDF); settings: 100 mg/kg, eight weeks
Protocol: To determine whether the morphological and functional changes (see EXAMPLES 6 and 7) were associated with an improvement in liver metabolism, the levels of glucose, triglycerides and cholesterol were quantified. Obese (fa/fa) Zucker rats (ZDF) and lean rats, as control, were used. Obese (fa/fa) Zucker rats (ZDF) were treated with a daily dose of Compound 2 (100 mg/kg) 5 days a week during eight weeks. Plasma from blood samples was collected, and the triglycerides, cholesterol and glucose levels were quantified by colorimetric methods. Also, liver samples were taken, and liver glycogen was measured.

THP-1 cells [5] = experiment: Cell proliferation of THP-1 cells co-stimulated with lipopolysaccharide; assay type: cell-based, human
Protocol: The ability of (2R,3S)-(2-hydroxy-5-methyl-3-trimethylammonium-hexyl)-phosphonic acid dimethyl ester iodide to modify the cell proliferation of monocytic cells (THP-1 cells) co-stimulated with lipopolysaccharide was investigated. THP-1 cells, a human monocytic cell line, were used and cultured in RPMI 1640 medium supplemented with 10% FBS and 100 U/ml penicillin-streptomycin. Cell cultures were incubated at 37° C. and 5% CO2. THP-1 cells were plated at 1×10^6 cells/ml in 24-well microtiter plates. Cells were co-stimulated with lipopolysaccharide (LPS, 10 μg/mL) in order to induce cell proliferation. Cells were treated with the compound at different concentrations, and a reduction in the number of cells at 0.01, 10 and 100 μM at 24 hours of treatment were observed (FIG. 12).

THP-1 cells [6] = experiment: Cell proliferation of THP-1 cells co-inhibited with hydrocortisone; assay type: cell-based, human; settings: hydrocortisone 10 μg/mL, all used concentrations, 48 hours of treatment
Protocol: The ability of (2R,3S)-(2-hydroxy-5-methyl-3-trimethylammonium-hexyl)-phosphonic acid dimethyl ester; iodide to modify the cell proliferation of THP-1 cells was investigated. THP-1 cells were cultured in RPMI 1640 medium supplemented with 10% FBS and 100 U/ml penicillin-streptomycin. Cell cultures were incubated at 37° C. and 5% CO2. THP-1 cells were plated at 1×10^6 cells/ml in 24-well microtiter plates. Cells were co-inhibited with hydrocortisone (10 μg/mL) to inhibit cell proliferation.

Nocardia brasiliensis = experiment: Reduction in mycetoma development induced in mice; assay type: in vivo; settings: Balb-c mice, dexamethasone, 5 mg/kg and 50 mg/kg, after 15 days of treatment
Protocol: The ability of (2R,3S)-(2-hydroxy-5-methyl-3-trimethylammonium-hexyl)-phosphonic acid dimethyl ester; iodide at 5 mg/kg and 50 mg/kg to reduce the mycetoma development induced in mice was investigated. For this, male Balb-c mice weighing 25 grams were used. Mice were treated with dexamethasone (125 mg/kg) and mycetoma was induced with the inoculation Nocardia brasiliensis (15×10^8 cells, se) (FIG. 16).
Mycetoma is a chronic infectious disease that remains localized, involves cutaneous and subcutaneous tissue, fascia, and bone, and is noncontagious. The disease is characterized by tumefaction, draining sinuses, and the presence of sclerotia. The 31 fungi known to cause mycetoma are associated with soil and woody plants. A chronic, tumor-like deforming disease develops during subsequent years following the introduction of the etiologic agent via localized trauma.

## C[N+](C)(C)C[C@H](O)CC(=O)[O-] [L-carnitine]
CD4+ counts
  improvement in CD4+ counts: greater improvement

## (2R,3S)-(2-hydroxy-5-methyl-3-trimethylammonium-hexyl)-phosphonic acid; iodide [Compound 1]
Blood lymphocytes; 5 days a week for two weeks, vs control group
  level of total T-lymphocytes: increased
Blood lymphocytes; two weeks
  levels of T helper (CD4+) lymphocytes: increases
  levels of cytotoxic (CD8+) lymphocytes: increases
Blood lymphocytes; two weeks, p<0.01
  regulatory T cells (CD4+CD25+): increase
Blood T-lymphocytes; five days a week for 5 weeks, vs control group
  level of total blood T-lymphocytes: increased

## CCCCCCCCCCCCCC(=O)O[C@@H]1[C@@H](C)[C@@]2(O)[C@@H](C=C(CO)C[C@]3(O)C(=O)C(C)=C[C@@H]23)[C@@H]2C(C)(C)[C@]12OC(C)=O [PMA, phorbol myristate 13-acetate, reference compound]
THP-1 cells [1]; THP-1 cells, 100 ng/mL, 48 hours
  cell differentiation of monocytic cells to macrophages: observed

## COP(=O)(C[C@H](O)[C@H](CC(C)C)[N+](C)(C)C)OC [Compound 2, (2R,3S)-(2-hydroxy-5-methyl-3-trimethylammonium-hexyl)-phosphonic acid dimethyl ester; iodide]
Blood T-lymphocytes; 5 weeks, blood
  cytotoxic T-lymphocyte (CD8+) levels: unchanged
  level of T helper (CD4+): increased
Blood T-lymphocytes; 5 weeks, similar to healthy Wistar rats, although in minor intensity
  T cell populations: increase
[2]; obese rats, blood
  cytotoxic lymphocytes: significant increase
  levels of total blood lymphocytes: increased
[2]; spleen
  subpopulation of T helper cells: reduction
  subpopulation of cytotoxic lymphocytes: reduction
  total T-lymphocytes: decline
[2]; thymus
  cytotoxic T-lymphocytes: increase
  double positive CD8+ CD4+ (DP) lymphocytes: slight decrease
  population of double negative CD4-CD8- (DN) lymphocytes: slight increase
  population of helper T cells: increase
Thymus and spleen
  spleen morphology (white pulp, lymphoid follicles): recovery
Thymus and spleen; treated for five weeks
  cellularity of medulla in thymus (histology): recovery
[3]; eight weeks, hematoxylin and eosin
  liver histology: normal liver histology
[3]; five days a week for eight weeks
  degree of fat accumulation in the liver: significant reduction
ALT, AST and AP in serum; 5 days a week during eight weeks
  level of ALT in serum: significant reduction
ALT, AST and AP in serum; eight weeks
  level of AP in serum: significant reduction
  level of AST in serum: significant reduction
[4]; Zucker rats
  amount of glycogen in the liver: higher
[4]; obese Zucker rats
  cholesterol compared with control (lean) levels: reached the control levels
  glucose compared with control (lean) levels: reached the control levels
[4]; obese Zucker rats, p<0.01
  cholesterol levels: significant reduction
  glucose levels: significant reduction
  triglycerides levels: significant reduction
THP-1 cells [5]; THP-1 cells co-stimulated with LPS 10 μg/mL
  effect of LPS: inhibit
THP-1 cells [5]; THP-1 cells, LPS 10 μg/mL, at 0.01, 10 and 100 μM, 24 hours of treatment
  number of cells (cell proliferation): reduction
THP-1 cells [6]
  cell proliferation: induction
THP-1 cells [1]; PMA-differentiated THP-1 cells, similar to macrophages treated with PMA alone
  phagocytosis of yeast by macrophages: induced
Nocardia brasiliensis
  paw thickness (mycetoma): significant reduction
